Test results taken from PubChem BioAssay (NCI).
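48-hour exposure; five concentrations; linearly interpolated endpoints. Here, GI50 denotes the concentration required for 50% inhibition of growth. Definition used: TGI = concentration required for complete inhibition of growth.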

Columns and labels:
Experiment in all cases: NCI tumour cell line growth inhibition, 48 h
DLD-1 colon = system: DLD-1 colon
XF 498 CNS = system: XF 498 CNS
LXFL 529 NSCLC = system: LXFL 529 NSCLC
M19-MEL melanoma = system: M19-MEL melanoma
DMS 114 small cell lung = system: DMS 114 small cell lung
HOP-18 NSCLC = system: HOP-18 NSCLC
DMS 273 small cell lung = system: DMS 273 small cell lung
MDA-N = system: MDA-N
RXF-631 renal = system: RXF-631 renal

## Cc1c(C(=O)/C=C/c2ccc([N+](=O)[O-])cc2)[n+](=O)c2ccccc2n1[O-]
DLD-1 colon
  TGI: > 100 µM
XF 498 CNS
  TGI: > 100 µM
LXFL 529 NSCLC
  TGI: > 100 µM
M19-MEL melanoma
  TGI: > 100 µM
DMS 114 small cell lung
  TGI: > 100 µM
HOP-18 NSCLC
  TGI: > 100 µM
DMS 273 small cell lung
  TGI: > 100 µM

## CC(=O)[CH-]C(=O)c1ccccc1.CC(=O)[CH-]C(=O)c1ccccc1.CC(=O)[CH-]C(=O)c1ccccc1.[Cl-].[Hf+4]
DLD-1 colon
  GI50: 25.8 µM
  TGI: > 100 µM
LXFL 529 NSCLC
  GI50: 39.4 µM
  TGI: > 100 µM
M19-MEL melanoma
  GI50: 27.3 µM
  TGI: > 100 µM

## CC(C)(C)c1cc(Cc2ccc(S(C)(=O)=O)cc2)c(O)c(C(C)(C)C)c1
DLD-1 colon
  TGI: 33 µM
XF 498 CNS
  TGI: 28.7 µM
LXFL 529 NSCLC
  TGI: 29.2 µM
M19-MEL melanoma
  TGI: 32.7 µM
DMS 114 small cell lung
  TGI: 26.3 µM
HOP-18 NSCLC
  TGI: 37.2 µM
DMS 273 small cell lung
  TGI: 27.3 µM

## CC(=O)[CH-]C(=O)c1ccccc1.CC(=O)[CH-]C(=O)c1ccccc1.CC[C@H](CCC(C)[C@H]1CCC2[C@@H]3CC=C4C[C@@H]([O-])CC[C@]4(C)C3CC[C@@]21C)C(C)C.CC[C@H](CCC(C)[C@H]1CCC2[C@@H]3CC=C4C[C@@H]([O-])CC[C@]4(C)C3CC[C@@]21C)C(C)C.Cl.[Ti+4] (stereo partly drawn)
DLD-1 colon
  GI50: > 25 µM
  TGI: > 25 µM
LXFL 529 NSCLC
  GI50: > 25 µM
  TGI: > 25 µM
HOP-18 NSCLC
  GI50: > 25 µM
  TGI: > 25 µM
DMS 273 small cell lung
  GI50: > 25 µM
  TGI: > 25 µM

## COC1(OC)CCC2(C)OC(c3ccccc3)C1O2 (stereo not drawn)
DLD-1 colon
  TGI: > 100 µM
XF 498 CNS
  TGI: > 100 µM
LXFL 529 NSCLC
  TGI: > 100 µM
DMS 114 small cell lung
  TGI: > 100 µM
DMS 273 small cell lung
  TGI: > 100 µM

## CC1(C)CCC2(C(=O)O)C(O)CC3(C)C(=CCC4C5(C)CCC(OC6OCC(O)C(O)C6OC6OCC(O)C(O)C6OC6OCC(O)C(OC7OC(CO)C(O)C(O)C7O)C6O)C(C)(C)C5CCC43C)C2C1 (stereo not drawn)
MDA-N
  TGI: 57.8 µM

## CC12CCC(=O)N1[C@@H](c1ccccc1)[C@@H](c1ccccc1)O2 (stereo partly drawn)
DLD-1 colon
  TGI: > 100 µM
XF 498 CNS
  TGI: > 100 µM
LXFL 529 NSCLC
  TGI: > 100 µM
M19-MEL melanoma
  TGI: > 100 µM
DMS 114 small cell lung
  TGI: > 100 µM

## [CH3][Ge]([CH3])([CH2]CC#N)[S]c1ccccc1
DLD-1 colon
  GI50: 14.6 µM
  TGI: 31.6 µM
LXFL 529 NSCLC
  GI50: 13.5 µM
  TGI: 27.5 µM
M19-MEL melanoma
  GI50: 16 µM
  TGI: 48 µM
HOP-18 NSCLC
  GI50: > 100 µM
  TGI: > 100 µM
DMS 273 small cell lung
  GI50: 6.1 µM
  TGI: 29.5 µM

## C=C1CC[C@@](C)(c2cc(Br)c(C)cc2OC(C)=O)[C@H]1C
MDA-N
  GI50: 11.7 µM
  TGI: 26.6 µM

## COC(=O)C1C(=O)C(C(=O)OC)C2CCC1N2C (stereo not drawn)
MDA-N
  TGI: 73.8 µM

## CCCCN(CCCC)CC(C(=O)Nc1ccc([N+](=O)[O-])cc1[N+](=O)[O-])/C(C)=N\NC(=O)c1ccncc1 (stereo not drawn)
DLD-1 colon
  TGI: > 100 µM
XF 498 CNS
  TGI: > 100 µM
LXFL 529 NSCLC
  TGI: > 100 µM
M19-MEL melanoma
  TGI: > 100 µM
DMS 114 small cell lung
  TGI: > 100 µM
RXF-631 renal
  TGI: > 100 µM
DMS 273 small cell lung
  TGI: > 100 µM

## Nc1nc2c(ncn2C2OC(CO)C(O)C2O)c(=O)o1 (stereo not drawn)
DLD-1 colon
  TGI: > 100 µM
XF 498 CNS
  TGI: > 100 µM
LXFL 529 NSCLC
  TGI: > 100 µM
M19-MEL melanoma
  TGI: > 100 µM
DMS 114 small cell lung
  TGI: > 100 µM
RXF-631 renal
  TGI: > 100 µM
HOP-18 NSCLC
  TGI: > 100 µM
DMS 273 small cell lung
  TGI: > 100 µM

## NC(N)=NCCCC(Nc1c2ccccc2nc2ccccc12)C(=O)O (stereo not drawn)
DLD-1 colon
  TGI: > 100 µM
LXFL 529 NSCLC
  TGI: > 100 µM
M19-MEL melanoma
  TGI: > 100 µM
RXF-631 renal
  TGI: > 100 µM
DMS 273 small cell lung
  TGI: > 100 µM

## NNC(=O)N/N=C(/CC1(O)C(=O)Nc2ccc(Br)cc21)c1ccccc1 (stereo not drawn)
DLD-1 colon
  TGI: > 100 µM
XF 498 CNS
  TGI: 38.5 µM
LXFL 529 NSCLC
  TGI: > 100 µM
M19-MEL melanoma
  TGI: > 100 µM
RXF-631 renal
  TGI: > 100 µM
DMS 273 small cell lung
  TGI: > 100 µM

## Cc1[nH]c2ccccc2c1/C=C/c1c(C)[nH]c2ccccc12
DLD-1 colon
  TGI: > 100 µM
XF 498 CNS
  TGI: > 100 µM
LXFL 529 NSCLC
  TGI: > 100 µM
M19-MEL melanoma
  TGI: > 100 µM
DMS 114 small cell lung
  TGI: > 100 µM
DMS 273 small cell lung
  TGI: > 100 µM

## C=C1C2CCCC1C1(S(C)(=O)=O)CCCCC21O (stereo not drawn)
DLD-1 colon
  TGI: > 100 µM
LXFL 529 NSCLC
  TGI: > 100 µM
M19-MEL melanoma
  TGI: > 100 µM
DMS 114 small cell lung
  TGI: > 100 µM
HOP-18 NSCLC
  TGI: > 100 µM
DMS 273 small cell lung
  TGI: > 100 µM

## COc1ccc(C(=O)C(c2ccc(OC)cc2)C2(O)C(=O)Nc3c(Cl)cc(Cl)cc32)cc1 (stereo not drawn)
DLD-1 colon
  TGI: 39.3 µM
XF 498 CNS
  TGI: 47.2 µM
LXFL 529 NSCLC
  TGI: 28.4 µM
DMS 114 small cell lung
  TGI: 42 µM
HOP-18 NSCLC
  TGI: 44.8 µM
DMS 273 small cell lung
  TGI: 46.8 µM

## CCN(CC)CCN1C(=O)c2c(c3c4cccc(Cl)c4n(C4OC(CO)C(OC)C(O)C4O)c3c3[nH]c4c(Cl)cccc4c23)C1=O (stereo not drawn)
DLD-1 colon
  GI50: 0.000403 µM
XF 498 CNS
  TGI: 0.284 µM
LXFL 529 NSCLC
  GI50: 0.000116 µM
M19-MEL melanoma
  GI50: 0.000144 µM
DMS 114 small cell lung
  GI50: < 0.0001 µM
HOP-18 NSCLC
  GI50: 0.102 µM
MDA-N
  TGI: 0.21 µM
DMS 273 small cell lung
  GI50: < 0.0001 µM

## O=C(CCl)N1CCN(c2ccccn2)CC1
MDA-N
  TGI: 42.4 µM

## CC1CN1c1c(C(=O)/C=C/c2ccc(F)cc2)c(-c2ccccc2)nn(C)c1=O (stereo not drawn)
DLD-1 colon
  TGI: 25.4 µM
XF 498 CNS
  TGI: 28.8 µM
LXFL 529 NSCLC
  TGI: 31.7 µM
M19-MEL melanoma
  TGI: 27.7 µM
DMS 114 small cell lung
  TGI: 31.1 µM
HOP-18 NSCLC
  TGI: 33.2 µM

## NC(=S)N/N=C/C(O[C@@H](/C=N/NC(N)=S)CO)n1cnc2c(N)ncnc21 (stereo partly drawn)
XF 498 CNS
  TGI: > 100 µM
LXFL 529 NSCLC
  TGI: > 100 µM
M19-MEL melanoma
  TGI: > 100 µM
DMS 114 small cell lung
  TGI: > 55.9 µM
RXF-631 renal
  TGI: > 100 µM
HOP-18 NSCLC
  TGI: > 100 µM
DMS 273 small cell lung
  TGI: 97.7 µM
